How the values were obtained:
C-26 tumor-bearing mice = experiment: C-26 colon adenocarcinoma model of cancer cachexia (body, muscle and tissue weights, tumor growth, food intake); type: in vivo, CD2F1 mice
Experimental: In one aspect, tumors were established by subcutaneous injection of C-26 cells (0.5×10^6 cells in 0.1 ml) into the right flank of male CD2F1 mice (approximately 6 weeks of age; Harlan Laboratories, Indianapolis, Ind.)(11). Tumor-bearing mice, as well as tumor-free mice serving as non-cachectic controls, were randomized into groups that were treated with either AR-42 (50 mg/kg, p.o. by gavage, every other day; Arno Therapeutics, Inc., Flemington, N.J.) or vehicle (0.5% methylcellulose (w/v) and 0.1% Tween-80 (v/v) in sterile water) starting 6 days after cell injection. To investigate the effect of delayed treatment, treatments with drug and/or vehicle were started 6, 10 and 12 days after cancer cell injection.
(§1) In another aspect, subcutaneous tumors were established in male C57BL/6 mice (approximately 6 weeks of age; Harlan) by injection of 0.5×10^6 LLC cells into the right flank. Treatment with AR-42 and vehicle was performed as for the C-26 model beginning 6 days after cell injection. In both models, body weights and food consumption were monitored daily and tumor size was measured no less than every two days. Mice were fasted for 2 hours prior to sacrifice, at which time, hind limb muscles, heart, spleen, epididymal fat, and blood were collected and the weights of the solid tissues were measured. Muscle samples were frozen in liquid nitrogen-chilled 2-methylbutane and then stored at −80° C. until analysis.
In one aspect, mice were treated orally by gavage with AR-42 (50 mg/kg) or vehicle every other day starting 6 days after injection C-26 cells, when palpable tumors had formed. […] By the study endpoint (day 15), the magnitude of the weight loss, after deducting the mass of the tumors (1 cm^3 volume=1 gram mass), reached >20% for the vehicle-treated group, and 6% for AR-42-treated mice (center). […] The AR-42-treated mice, despite their large tumor burden, were alert, responsive, active, and lacked the hunched posture and rough haircoat observed in vehicle-treated counterparts by the end point of this study (FIG. 1B).
CD2F1 and C57BL/6 mice were group-housed under conditions of constant photoperiod (12-hour light/12-hour dark), temperature and humidity with ad libitum access to water and standard diet. Mice were briefly anesthetized (isoflurane, 3-4%) during administration of drugs (AR-42, vorinostat, vehicle) by oral gavage. Food consumption was estimated by weighing food in each cage daily and dividing the daily decrease in food by the number of mice in the cage. Tumor volumes were calculated from caliper measurements using a standard formula (length×width^2×π/6).

LLC tumor-bearing mice = experiment: LLC mouse model of cachexia, hindlimb muscle mass; type: in vivo; settings: LLC tumor-bearing C57BL/6 mice, 50 mg/kg p.o. every other day, day 6 to day 20
Experimental: as §1
(§2) To confirm that the anti-cachectic activity of AR-42 was not specific to the C-26 model, it was also evaluated in the LLC model. C57BL/6 mice bearing subcutaneous LLC tumors were treated with AR-42 (50 mg/kg, p.o., every other day) starting on day 6 after tumor cell injection, and continuing until day 20 when hind limb muscles were harvested at sacrifice.
as §2, with “subcutaneous […]” for “subcutaneous”

[1] = tested on: gastrocnemius muscles of C-26 tumor-bearing mice; experiment: Metabolomic profiling of gastrocnemius muscle, C-26 model; type: in vivo, CD2F1 mice; settings: day 17, C-26 tumor-bearing mice
Description: (§3) Gastrocnemius muscles and sera were collected at day 17 post-cell injection from each treatment group (n=8/group). Muscle was submitted to Metabolon, Inc. (Durham, N.C.) for metabolomic analysis of 270 metabolic intermediates via proprietary mass spectrometry platforms. Serum was submitted to Eve Technologies (Alberta, Canada) for analysis of 32 cytokines using a mouse cytokine array (32-plex panel).
With cachexia, skeletal muscles undergo complex metabolic changes in response to tumor/host-derived inflammatory and neuroendocrine stressors (1). Accordingly, we conducted metabolic profiling analysis to investigate the effect of AR-42 on cachexia-induced shifts in metabolic phenotype in skeletal muscle. Tumor-free and C-26 tumor-bearing mice were treated with vehicle or AR-42 as aforementioned, and gastrocnemius muscles were collected at day 17 for metabolomic analysis.

IL-6 = experiment: Serum cytokine profiling, C-26 model: IL-6; type: in vivo, CD2F1 mice; settings: C-26 tumor-bearing mice, day 17; tumor-bearing/vehicle 230±105, tumor-free/vehicle 2.9±1.3
Description: as §3
(§4) To shed light onto the mechanism by which AR-42 mediated its anti-cachectic effect, sera and gastrocnemius muscle from vehicle- or AR-42-treated tumor-free and C-26 tumor-bearing mice were used for cytokine profiling analysis and whole transcriptome shotgun sequencing (RNA-seq), respectively.

[2] = tested on: leukemia inhibitory factor (LIF); experiment: Serum cytokine profiling, C-26 model: LIF; type: in vivo, CD2F1 mice; settings: C-26 tumor-bearing mice, day 17; tumor-bearing/vehicle 19.7±9.3, tumor-free/vehicle 1.7±1.5
Description: as §3, §4

CC(C)[C@H](C(=O)Nc1ccc(C(=O)NO)cc1)c1ccccc1 [AR-42, (S)—N-hydroxy-4-(3-methyl-2-phenylbutanamido)benzamide]
enlarged spleens (splenomegaly) in tumor-bearing mice (C-26 tumor-bearing mice): not improved
loss of cardiac tissue mass in tumor-bearing mice (C-26 tumor-bearing mice): ameliorated
tumor growth relative to vehicle (C-26 tumor-bearing mice; 50 mg/kg p.o. every other day from day 6, 15-day study): did not alter tumor growth
magnitude of the weight loss after deducting the mass of the tumors (C-26 tumor-bearing mice; 50 mg/kg p.o. every other day from day 6, study endpoint day 15, vehicle group >20%): 6%
reduction of tibialis anterior weight relative to tumor-free control mice (C-26 tumor-bearing mice; day 15, tumor-bearing/vehicle 10.5%): 0.8%
reduction of quadriceps weight relative to tumor-free control mice (C-26 tumor-bearing mice; day 15, tumor-bearing/vehicle 18.1%): 5.8%
reduction of gastrocnemius weight relative to tumor-free control mice (C-26 tumor-bearing mice; day 15, tumor-bearing/vehicle 20.6%): 9.6%
loss of adipose tissue mass in tumor-bearing mice (C-26 tumor-bearing mice; restored to a level comparable to tumor-free/AR-42 mice): restored the loss of adipose tissue mass
tibialis anterior mass, % of non-cachectic control (LLC tumor-bearing mice; vehicle 80.3±4.0%): 93.4±3.9%
gastrocnemius mass, % of non-cachectic control (LLC tumor-bearing mice; vehicle 81.7±3.7%): 92.2±3.5%
quadriceps mass, % of non-cachectic control (LLC tumor-bearing mice; vehicle 84.4±4.6%): 93.4±4.8%
cachectic phenotype of free amino acids and amino acid metabolites [1]: reversed
glycogen metabolic intermediates (short-chain malto-oligosaccharides, glucose 1-phosphate) [1]: significantly replenished
intramuscular levels of glucose and key glycolytic intermediates ([1]; lowered in cachectic muscle): reversed these metabolic changes
2-hydroxybutyrate and ophthalmate levels in muscle ([1]; to levels comparable to tumor-free mice): dramatically reduced
serum IL-6 level (IL-6): 102 ± 38 pg/mL
serum LIF level [2]: 3.8 ± 1.6 pg/mL
